Reference: patent US6355799B1, “Substituted benzene compounds, process for their preparation, and herbicidal and defoliant compositions containing them” (ISK Americas Incorporated, priority 1997, dated 2002)

What was measured:
Assay type in all cases: in vivo
[1] = system: upland rice (Oryza sp., var. Tebonnet, RICE); experiment: Pre-emerge test, crop safety; details: pre-emerge, 14 days after application, scale 0-100
Procedure, shortened: (§1)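 Plants grown in 10 cm pots of sandy loam mix received acetone-dissolved compounds through a moving flat-fan nozzle. Doses ranged from 15 to 1000 g ai/ha. Pre-emerge pots were seeded one day earlier, post-emerge pots 8–21 days earlier. Fourteen days on, each pot was graded 0–100 for damage.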

[2] = system: field corn (Zea mays L., var. Dekalb 535, CORN); experiment: Pre-emerge test, crop safety; details: pre-emerge, 14 days after application, scale 0-100
Procedure, shortened: as §1

[3] = system: large crabgrass (Digitaria sanguinalis, DIGSA); experiment: Pre-emerge test, greenhouse herbicide activity screening; details: pre-emerge, 14 days after application, scale 0-100
Procedure, shortened: (§2)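 Fourteen days after spraying, crop and weed injury was graded visually from 0, no effect, to 100, every plant dead. Test substances were dissolved in acetone and applied at 15–1000 g ai/ha with a flat-fan nozzle. Application was either pre-emergence, one day after sowing, or post-emergence at the 2–3 leaf stage.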

[4] = system: green foxtail (Setaria viridis, SETVI); experiment: as above; details: pre-emerge, 14 days after application, scale 0-100
Procedure, shortened: as §2

[5] = system: lambsquarters (Chenopodium album, CHEAL); experiment: as above; details: pre-emerge, 14 days after application, scale 0-100
Procedure, shortened: as §2

[6] = system: johnsongrass (Sorghum halepense, SORHA); experiment: as above; details: pre-emerge, 14 days after application, scale 0-100
Procedure, shortened: as §2

[7] = system: sicklepod (Cassia obtusifolia, CASOB); experiment: as above; details: pre-emerge, 14 days after application, scale 0-100
Procedure, shortened: as §2

[8] = system: barnyardgrass (Echinochloa crus-galli, ECHCG); experiment: as above; details: pre-emerge, 14 days after application, scale 0-100
Procedure, shortened: as §2

[9] = system: common ragweed (Ambrosia artemisizfolia L., AMBEL); experiment: as above; details: pre-emerge, 14 days after application, scale 0-100
Procedure, shortened: as §2

[10] = system: velvetleaf (Abutilon theophrasti, ABUTH); experiment: as above; details: pre-emerge, 14 days after application, scale 0-100
Procedure, shortened: as §2

[11] = system: ivyleaf morningglory (Ipomoea hederacea, IPOHE); experiment: as above; details: pre-emerge, 14 days after application, scale 0-100
Procedure, shortened: as §2

[12] = system: large crabgrass (Digitaria sanguinalis, DIGSA); experiment: Post-emerge test, greenhouse herbicide activity screening; details: post-emerge, 14 days after application, rating scale 0-100
Procedure, shortened: (§3)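 Compounds in acetone were track-sprayed at 15–1000 g ai/ha: pre-emergence onto soil sown the previous day, then top-watered to incorporate and later bottom-watered; post-emergence onto 2–3 leaf plants with 0.25% v/v surfactant, bottom-watered only. Ratings on a 0–100 phytotoxicity scale were taken at day 14.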

[13] = system: green foxtail (Setaria viridis, SETVI); experiment: as above; details: post-emerge, 14 days after application, rating scale 0-100
Procedure, shortened: as §3

[14] = system: redroot pigweed (Amaranthus retroflexus, AMARE); experiment: as above; details: post-emerge, 14 days after application, rating scale 0-100
Procedure, shortened: as §3

[15] = system: lambsquarters (Chenopodium album, CHEAL); experiment: as above; details: post-emerge, 14 days after application, rating scale 0-100
Procedure, shortened: as §3

[16] = system: sicklepod (Cassia obtusifolia, CASOB); experiment: as above; details: post-emerge, 14 days after application, rating scale 0-100
Procedure, shortened: as §3

[17] = system: barnyardgrass (Echinochloa crus-galli, ECHCG); experiment: as above; details: post-emerge, 14 days after application, rating scale 0-100
Procedure, shortened: as §3

[18] = system: common ragweed (Ambrosia artemisizfolia L., AMBEL); experiment: as above; details: post-emerge, 14 days after application, rating scale 0-100
Procedure, shortened: as §3

[19] = system: velvetleaf (Abutilon theophrasti, ABUTH); experiment: as above; details: post-emerge, 14 days after application, rating scale 0-100
Procedure, shortened: as §3

[20] = system: ivyleaf morningglory (Ipomoea hederacea, IPOHE); experiment: as above; details: post-emerge, 14 days after application, rating scale 0-100
Procedure, shortened: as §3

[21] = system: upland rice (Oryza sp., var. Tebonnet, RICE); experiment: Post-emerge test, crop safety; details: post-emerge, 14 days after application, rating scale 0-100
Procedure, shortened: as §2

[22] = system: field corn (Zea mays L., var. Dekalb 535, CORN); experiment: Post-emerge test, crop safety; details: post-emerge, 14 days after application, rating scale 0-100
Procedure, shortened: as §2

[23] = system: redroot pigweed (Amaranthus retroflexus, AMARE); experiment: Pre-emerge test, greenhouse herbicide activity screening; details: pre-emerge, 14 days after application, scale 0-100
Procedure, shortened: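 Rating: 0–100 visual injury, 14 DAA. Application: acetone, 187 l/ha, 15–1000 g ai/ha, flat-fan track sprayer with nozzle 40–45 cm above soil or canopy. Post-emerge runs used 0.25% v/v surfactant on 2–3 leaf plants.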

Cn1c(C(F)(F)F)cc(=O)n(-c2c(F)cc(Cl)cc2NC2CC2)c1=O [2-147]
99: phytotoxicity rating RICE (crop damage) ([1]; 63 g ai/ha)
80: phytotoxicity rating AMBEL ([9]; 63 g ai/ha) | phytotoxicity rating IPOHE ([11]; 63 g ai/ha) | CASOB phytotoxicity rating ([16]; 63 g ai/ha)
75: RICE phytotoxicity rating (crop damage) ([21]; 250 g ai/ha)
50: DIGSA phytotoxicity rating ([12]; 250 g ai/ha) | ECHCG phytotoxicity rating ([17]; 250 g ai/ha) | RICE phytotoxicity rating (crop damage) ([21]; 63 g ai/ha)
10: ECHCG phytotoxicity rating ([17]; 63 g ai/ha)
20: DIGSA phytotoxicity rating ([12]; 63 g ai/ha) | SETVI phytotoxicity rating ([13]; 63 g ai/ha)
40: phytotoxicity rating CASOB ([7]; 63 g ai/ha) | SETVI phytotoxicity rating ([13]; 250 g ai/ha)
90: phytotoxicity rating DIGSA ([3]; 63 g ai/ha) | phytotoxicity rating SORHA ([6]; 63 g ai/ha) | phytotoxicity rating ECHCG ([8]; 63 g ai/ha) | CORN phytotoxicity rating (crop damage) ([22]; 250 g ai/ha)
95: CASOB phytotoxicity rating ([16]; 250 g ai/ha) | AMBEL phytotoxicity rating ([18]; 63 g ai/ha)
100: phytotoxicity rating RICE (crop damage) ([1]; 250 g ai/ha) | phytotoxicity rating CORN (crop damage) ([2]; 63 g ai/ha) | phytotoxicity rating CORN (crop damage) ([2]; 250 g ai/ha) | phytotoxicity rating DIGSA ([3]; 250 g ai/ha) | phytotoxicity rating SETVI ([4]; 63 g ai/ha) | phytotoxicity rating SETVI ([4]; 250 g ai/ha) | phytotoxicity rating CHEAL ([5]; 63 g ai/ha) | phytotoxicity rating CHEAL ([5]; 250 g ai/ha) | phytotoxicity rating SORHA ([6]; 250 g ai/ha) | phytotoxicity rating CASOB ([7]; 250 g ai/ha) | phytotoxicity rating ECHCG ([8]; 250 g ai/ha) | phytotoxicity rating AMBEL ([9]; 250 g ai/ha) | phytotoxicity rating ABUTH ([10]; 63 g ai/ha) | phytotoxicity rating ABUTH ([10]; 250 g ai/ha) | phytotoxicity rating IPOHE ([11]; 250 g ai/ha) | AMARE phytotoxicity rating ([14]; 63 g ai/ha) | AMARE phytotoxicity rating ([14]; 250 g ai/ha) | CHEAL phytotoxicity rating ([15]; 63 g ai/ha) | CHEAL phytotoxicity rating ([15]; 250 g ai/ha) | AMBEL phytotoxicity rating ([18]; 250 g ai/ha) | ABUTH phytotoxicity rating ([19]; 63 g ai/ha) | ABUTH phytotoxicity rating ([19]; 250 g ai/ha) | IPOHE phytotoxicity rating ([20]; 63 g ai/ha) | IPOHE phytotoxicity rating ([20]; 250 g ai/ha) | phytotoxicity rating AMARE ([23]; 63 g ai/ha) | phytotoxicity rating AMARE ([23]; 250 g ai/ha)
15: CORN phytotoxicity rating (crop damage) ([22]; 63 g ai/ha)
